Laboratory results as given in US12551475B2, “Methods and compositions for treating RNA viral infections” (Model Medicines, Inc., priority 2020, dated 2026).
Like-named read-outs stand apart in the source and are kept apart here.

Legend:
[1] = humans; cited from earlier work
[2] = rats; cited from earlier work
[3] = target: pig striatum A2A receptor (Sus scrofa, UniProt K9IW67); conditions: cited from earlier work
[4] = pig, in vivo; cited from earlier work
[5] = target: adenosine A2 receptors; conditions: cited from earlier work
[6] = mouse, IV; cited from earlier work
[7] = in vivo, cited from earlier work
[8] = 30 mg/kg and 60 mg/kg oral gavage; cited from earlier work
[9] = monkey, IV; cited from earlier work
[10] = Uninfected host cell cytotoxicity counter screen; format: cell-based, human; conditions: human, uninfected HeLa-ACE2 cells; uninfected HeLa-ACE2, 24 h
Procedure: (§1) Compounds were acoustically transferred into 1,536-well clear plates (Greiner Part. No. 789091). HeLa-ACE2 cells were maintained as described for the infection assay and seeded in the assay-ready plates at 400 cells/well in DMEM with 2% FBS and plates were incubated for 24 hours at 37 5% CO2. To assess cell viability, the Image-iT DEAD green reagent (Thermo Fisher) was used according to manufacturer instructions. Cells were fixed with 4% paraformaldehyde, and counterstained with DAPI. Fixed cells were imaged using the ImageXpress Micro Confocal High-Content Imaging System (Molecular Devices) with a 10× objective, and total live cells per well quantified in the acquired images using the Live Dead Application Module (MetaXpress).
(§2) Image analysis was carried out with MetaXpress (version 6.5.4.532). Primary in vitro screen and the host cell cytotoxicity counter screen data were uploaded to Genedata Screener, Version 16.0.3-Standard. Data were normalized to neutral (DMSO) […] inhibitor controls (2.5 μM remdesivir for antiviral effect and 10 μM puromycin for infected host cell toxicity). For the uninfected host cell cytotoxicity counter screen 40 μM puromycin (Sigma) was used as the positive control. For dose response experiments compounds were tested in technical triplicates on different assay plates and dose curves were fitted with the four parameter Hill Equation. Technical replicate data were analyzed using median condensing.

[11] = intravenously, cited from earlier work
[12] = i.v., 28 day, dosed daily; cited from earlier work
[13] = test system: Vero E6 cells; conditions: cited from earlier work
[14] = dog, IV; cited from earlier work
[15] = target: T1, cytochrome P450 (CYP) 3A4 (Homo sapiens, UniProt P08684); conditions: human liver microsomes; cited from earlier work
T1 construct: from tissue; host or cells: human liver microsomes
T1 sequence (P08684 whole entry): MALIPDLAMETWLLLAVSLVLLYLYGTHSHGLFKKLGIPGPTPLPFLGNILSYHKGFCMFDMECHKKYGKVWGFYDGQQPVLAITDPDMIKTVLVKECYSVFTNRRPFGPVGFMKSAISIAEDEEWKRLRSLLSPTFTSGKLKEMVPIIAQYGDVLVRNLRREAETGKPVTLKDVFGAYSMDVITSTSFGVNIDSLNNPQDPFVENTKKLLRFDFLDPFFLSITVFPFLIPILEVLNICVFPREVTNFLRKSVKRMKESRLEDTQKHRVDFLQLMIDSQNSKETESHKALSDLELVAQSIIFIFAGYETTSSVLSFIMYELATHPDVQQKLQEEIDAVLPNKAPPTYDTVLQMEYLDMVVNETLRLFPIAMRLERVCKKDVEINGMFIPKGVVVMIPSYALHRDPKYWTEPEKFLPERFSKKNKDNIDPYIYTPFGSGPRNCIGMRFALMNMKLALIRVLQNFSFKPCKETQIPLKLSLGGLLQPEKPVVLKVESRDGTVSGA

[16] = test system: SARS-CoV-2; experiment: microbe, parasite or virus in culture
[17] = test system: SARS-CoV-2; conditions: read-out: CPE EC50; cited from earlier work
[18] = test system: SARS-CoV-2; conditions: cited from earlier work
[19] = test system: SARS-CoV-2; conditions: for Hill coefficient (Nh): slope of the dose response curve
[20] = test system: HeLa-ACE2 cells; conditions: Bakowski et al, 2020; cited from earlier work
[21] = test system: SARS-CoV-2; conditions: cited from earlier work; remark: listed apart in the source
[22] = test system: L1210 cancer cells; conditions: cited from earlier work
[23] = test system: BxPC-3 cancer cells; conditions: cited from earlier work
[24] = test system: CEM cancer cells; conditions: cited from earlier work
[25] = test system: MP-2 cancer cells; conditions: cited from earlier work
[26] = test system: HIV-1; conditions: cited from earlier work
[27] = test system: adhesion of HuT 78 cells to ICAM-1; conditions: cited from earlier work
[28] = target: T2, LFA-1 interaction with ICAM-1 (Homo sapiens, UniProt P05107+P20701); conditions: Jurkat T cells; cited from earlier work
T2 construct: endogenous in cells; host or cells: Jurkat T cells
T2 sequence (P20701 26-1170): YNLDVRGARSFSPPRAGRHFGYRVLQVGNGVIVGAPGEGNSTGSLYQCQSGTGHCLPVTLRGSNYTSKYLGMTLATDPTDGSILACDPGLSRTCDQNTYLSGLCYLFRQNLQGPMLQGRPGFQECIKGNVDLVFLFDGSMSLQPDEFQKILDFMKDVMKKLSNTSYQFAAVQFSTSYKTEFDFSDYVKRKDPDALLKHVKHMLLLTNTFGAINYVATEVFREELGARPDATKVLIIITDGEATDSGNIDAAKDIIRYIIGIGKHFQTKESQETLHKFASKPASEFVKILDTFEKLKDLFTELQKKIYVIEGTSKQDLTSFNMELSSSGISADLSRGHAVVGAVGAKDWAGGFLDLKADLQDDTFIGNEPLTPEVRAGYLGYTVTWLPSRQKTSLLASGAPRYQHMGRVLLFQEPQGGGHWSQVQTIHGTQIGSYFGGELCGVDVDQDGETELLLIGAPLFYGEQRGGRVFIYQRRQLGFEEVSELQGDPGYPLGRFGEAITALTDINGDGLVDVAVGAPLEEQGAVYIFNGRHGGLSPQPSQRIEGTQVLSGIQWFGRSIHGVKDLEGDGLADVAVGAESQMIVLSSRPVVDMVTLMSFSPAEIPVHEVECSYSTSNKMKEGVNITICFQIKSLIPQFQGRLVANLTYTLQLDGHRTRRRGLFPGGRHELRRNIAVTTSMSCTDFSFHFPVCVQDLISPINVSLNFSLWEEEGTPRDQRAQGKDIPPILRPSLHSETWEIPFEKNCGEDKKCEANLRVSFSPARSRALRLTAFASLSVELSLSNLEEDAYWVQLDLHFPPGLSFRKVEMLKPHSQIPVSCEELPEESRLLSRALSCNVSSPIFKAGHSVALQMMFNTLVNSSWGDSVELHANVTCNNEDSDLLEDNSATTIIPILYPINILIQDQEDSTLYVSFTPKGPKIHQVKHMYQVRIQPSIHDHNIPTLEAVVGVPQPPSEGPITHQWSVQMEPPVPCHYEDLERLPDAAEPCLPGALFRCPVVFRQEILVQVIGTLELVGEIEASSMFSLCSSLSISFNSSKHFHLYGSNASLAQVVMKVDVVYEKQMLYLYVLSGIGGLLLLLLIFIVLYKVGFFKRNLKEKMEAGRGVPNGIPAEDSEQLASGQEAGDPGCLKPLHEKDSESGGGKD
T2 sequence (P05107 23-769): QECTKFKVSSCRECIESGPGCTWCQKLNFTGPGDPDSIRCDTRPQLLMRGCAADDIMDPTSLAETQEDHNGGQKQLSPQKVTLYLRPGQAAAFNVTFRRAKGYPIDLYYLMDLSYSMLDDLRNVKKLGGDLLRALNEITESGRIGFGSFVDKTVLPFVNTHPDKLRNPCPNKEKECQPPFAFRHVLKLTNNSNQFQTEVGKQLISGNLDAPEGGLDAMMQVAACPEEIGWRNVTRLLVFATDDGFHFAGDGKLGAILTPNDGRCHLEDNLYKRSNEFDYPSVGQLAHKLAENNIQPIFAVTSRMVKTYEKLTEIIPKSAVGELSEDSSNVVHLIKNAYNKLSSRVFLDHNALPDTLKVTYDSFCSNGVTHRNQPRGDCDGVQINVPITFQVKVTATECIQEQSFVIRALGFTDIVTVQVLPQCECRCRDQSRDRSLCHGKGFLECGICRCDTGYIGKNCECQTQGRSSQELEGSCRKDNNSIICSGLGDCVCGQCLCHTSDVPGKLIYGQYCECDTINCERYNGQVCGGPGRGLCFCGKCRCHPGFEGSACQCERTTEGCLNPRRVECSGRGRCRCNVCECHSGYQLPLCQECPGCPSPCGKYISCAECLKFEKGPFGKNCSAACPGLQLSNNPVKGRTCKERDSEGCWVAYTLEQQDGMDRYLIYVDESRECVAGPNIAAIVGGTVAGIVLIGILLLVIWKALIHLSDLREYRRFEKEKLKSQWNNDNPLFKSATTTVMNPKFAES

[29] = humans; cited from earlier work; remark: listed apart in the source
[30] = test system: HeLa-ACE2 cells; experiment: Uninfected host cell cytotoxicity counter screen; format: cell-based, human; conditions: uninfected HeLa-ACE2, 24 h
Procedure: as §1, §2

[31] = mice; cited from earlier work
[32] = Severe acute respiratory syndrome coronavirus 2, HeLa-ACE2, 24 h
[33] = Severe acute respiratory syndrome coronavirus 2, HeLa-ACE2, CoV-2/HeLa-ACE2 assay, unit uM

Chain of pig striatum A2A receptor (K9IW67 entry or part of it): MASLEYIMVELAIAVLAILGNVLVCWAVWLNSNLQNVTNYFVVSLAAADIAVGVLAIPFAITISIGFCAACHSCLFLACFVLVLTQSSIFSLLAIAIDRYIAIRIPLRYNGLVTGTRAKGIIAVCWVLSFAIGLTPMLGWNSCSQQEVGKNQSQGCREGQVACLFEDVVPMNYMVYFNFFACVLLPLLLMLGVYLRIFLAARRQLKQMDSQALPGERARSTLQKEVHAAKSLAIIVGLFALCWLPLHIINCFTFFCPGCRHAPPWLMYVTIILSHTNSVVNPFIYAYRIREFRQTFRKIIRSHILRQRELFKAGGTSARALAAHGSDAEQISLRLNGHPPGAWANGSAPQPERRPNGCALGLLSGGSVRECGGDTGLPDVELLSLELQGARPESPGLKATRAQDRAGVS

## Cc1c(-c2ccc(O)cc2)n(Cc2ccc(OCCN3CCCCCC3)cc2)c2ccc(O)cc12 [Bazedoxifene]
[1]
  safely tolerated dose: 20 mg/day
[2]
  safely tolerated dose: 100 mg/kg/day

## CNC(=O)c1cnn(-c2nc(N)c3ncn([C@@H]4O[C@H](CO)[C@@H](O)[C@H]4O)c3n2)c1 [Regadenoson, 2-[4-[(methylamino)carbonyl]-1H-pyrazol-1-yl]-adenosine]
[3]
  Ki: 0.0011 µM
[4]
  half-time to reversal: 1.9 to 2.6 min
  increase of coronary blood flow: 3.4- to 3.8 fold

## CNC(=O)[C@H]1O[C@@H](n2cnc3c(NCc4cccc(I)c4)ncnc32)[C@H](O)[C@@H]1O [Piclidenoson, 1-deoxy-1-[6-[[(3-iodophenyl)methyl]amino]-9H-purin-9-yl]-N-methyl-β-D-ribofuranuronamide]
[5]
  Ki: 3.1 µM

## CNCc1ccc(-c2cc(-c3nc(-c4ccc(S(=O)(=O)C(C)C)cc4)cnc3N)on2)cc1 [Berzosertib]
[6]
  systemic clearance (CL): 4.92 L/h/kg
[7]
  half-life (t 1/2): about 17 hours
[8]
  tolerability (in words): no adverse effects or toxicity
[9]
  systemic clearance (CL): 1.74 L/h/kg
[10]
  CC50 at 24 h: 3.14 µM
[11]; once-weekly
  safe and well tolerated clinical dose, no DLTs observed: 480 mg/m2
[11]; twice weekly
  safe and well tolerated clinical dose, no DLTs observed: 240 mg/m2
[12]
  STD10: 30 mg/kg/day
[13]
  CC50: 11.2 µM
[14]
  systemic clearance (CL): 0.78 L/h/kg
[15]
  enzyme mainly metabolizing the drug: cytochrome P450 (CYP) 3A4
[16]; [32]
  EC50: 0.114 µM
[16]; [33]
  EC50: 0.114 µM
[17]
  EC50: 0.71 µM
[18]
  IC50: < 0.025 µM
[19]
  activity in the HeLa-ACE2 cell-based SARS-CoV-2 assay (in words): demonstrated activity
  Hill coefficient (Nh): 1.485

## Nc1nc(Nc2ccc3c(c2)CC[C@@H](N2CCCC2)CC3)nn1-c1cc2c(nn1)-c1ccccc1CCC2 [R-428]
[20]
  CC50: > 40 µM
[21]; Bakowski et al, 2020
  synergy score with remdesivir against SARS-CoV-2: 7.22
[21]; ReFRAME screen, same methods (Bakowski et al, 2020)
  EC50: 2.88 µM

## C[C@H](NP(=O)(OC[C@H]1O[C@@H](n2ccc(N)nc2=O)C(F)(F)[C@@H]1O)Oc1ccccc1)C(=O)OCc1ccccc1 (stereo partly drawn) [NUC-1031, N-(2′-deoxy-2′,2′-difluoro-P-phenyl-5′-cytidylyl)-L-alanine, phenylmethyl ester]
[22]
  IC50: 0.035 µM
[23]
  IC50: 0.04 µM
[24]
  IC50: 0.03 µM
[25]
  IC50: 0.06 µM

## Cc1cccc(C)c1OCC(=O)N[C@@H](Cc1ccccc1)[C@@H](O)C[C@H](Cc1ccccc1)NC(=O)[C@H](C(C)C)N1CCCNC1=O [Lopinavir, N-[(1S,3S,4S)-4-[[2-(2,6-dimethylphenoxy)acetyl]amino]-3-hydroxy-5-phenyl-1-(phenylmethyl)pentyl]tetrahydro-aS-(1-methylethyl)-2-oxo-1(2H)-pyrimidineacetamide]
[26]
  EC50: 0.005 to 0.052 µM

## CS(=O)(=O)c1cccc(C[C@H](NC(=O)c2c(Cl)cc3c(c2Cl)CCN(C(=O)c2ccc4ccoc4c2)C3)C(=O)O)c1 [Lifitegrast, N-[[2-(6-benzofuranylcarbonyl)-5,7-dichloro-1,2,3,4-tetrahydro-6-isoquinolinyl]carbonyl]-3-(methylsulfonyl)-L-phenylalanine]
[27]
  IC50: 0.009 µM
[28]
  IC50: 0.00298 µM

## Cc1c(-c2ccc(O)cc2)n(Cc2ccc(OCCN3CCCCC3)cc2)c2ccc(O)cc12 [Pipendoxifene]
[29]
  safely tolerated dose: up to 200 mg/daily
[7]; hamster
  half-life (t ½): 30 h
[7]
  half-life (t 1/2): 15.8 to 27.3 h
[30]
  CC50: > 39.8 µM
[31]
  safely tolerated dose: at least 20 mg/kg/day
[16]; [32]
  EC50: 8.24 µM
[16]; [33]
  EC50: 8.24 µM
[16]; Severe acute respiratory syndrome coronavirus 2, HeLa-ACE2, read-out: EC90 (Hill equation, Equation I)
  EC90: 15 µM
[16]; Severe acute respiratory syndrome coronavirus 2, HeLa-ACE2, read-out: EC90 range from both equations
  EC90: 14.3 to 15 µM
[19]
  EC90: 14.3 µM
  activity in the HeLa-ACE2 cell-based SARS-CoV-2 assay (in words): demonstrated activity
  Hill coefficient (Nh): 4
[19]; CoV-2/HeLa-ACE2 assay, unit uM
  EC50: 8.42 µM
[19]; derived from the graph
  EC10: 5.012 µM
